Structures are written as SMILES.

For test [1], the system named is p-AMPK (Thr172). Nature of the test: AMPK activation by p-AMPK (Thr172) Western blot in gastric cancer cell lines. The format is cell-based, human. To be noted: 10 μM, 12 hours, compared to untreated group. The procedure:
(§1) [3-2] The three breast cancer cell lines (4T1, BT549, and MDA-MB-231) of Experimental Method 1 were treated with each of the compound of Production Example 6 and 13 compounds, including the compounds of Production Examples 1 to 5 and 8 to 15 having a similar structure (YE-01, 02, 03, 04, 05, 08, 09, 10, 11, 12, 13, 14 and 15), at a concentration of 10 μM, and then cultured for 24 hours. In addition, each of two types of gastric cancer cell lines, brain cancer cell lines and pancreatic cancer cell lines was treated with the compound of Production Example 6 or the compound of Production Example 8 having a similar structure at a concentration of 10 μM and then cultured for 12 hours. Thereafter, the cells were harvested and lysed in RIPA buffer, and the protein was electrophoresed by SDS-PAGE, and then the expression level of the protein was analyzed using antibodies specific for AMPK and phospho-AMPK (Thr172). GAPDH or β-actin was used as a loading control for protein quantification.

The subject of test [2] is p-AMPK (Thr172). Description: AMPK activation by p-AMPK (Thr172) Western blot in brain cancer cell lines. Type of test: cell-based, human. To be noted: 10 μM, 12 hours, compared to untreated group. The procedure:
as §1
(Immunoblotting shows a protein as a band on a membrane.)

Test [3] has as its system p-AMPK (Thr172). Description: AMPK activation by p-AMPK (Thr172) Western blot in pancreatic cancer cell lines. Type of test: cell-based, human. The following applies: 10 μM, 12 hours, compared to untreated group. The procedure:
as §1

A further test concerns 4T1 cell line. Description: Cell viability assay (WST-1). Type of test: cell-based. The following applies: Mus musculus; 4T1, 10 μM, 24 hours; FIG. 3A; read-out: cancer cell viability inhibited. The procedure: (§2) [4-1-1] The breast cancer cell line of Experimental Method 1 was treated with 5-aminoimidazole-4-carboxamide ribonucleotide (AICAR) (which is not the compound of Production Example 6) or the compound of Production Example 6 at a concentration of 0 to 30 μM, and then cultured for 24 hours, 48 hours and 72 hours. Thereafter, the cultured cells were treated with WST-1 reagent, and then the absorbance at a wavelength of 450 nm was measured. Here, the WST-1 reagent allows the cell viability to be measured by changing the color of the culture medium depending on the level of the mitochondrial dehydrogenase present in the cell.
(§3) [4-1-2] The breast cancer cell line 4T1, BT549 or MDA-MB-231 of Experimental Method 1 was treated with each of the compound of Production Example 6 and 13 compounds, including the compounds of Production Examples 1 to 5 and 8 to 15 having a similar structure (YE-01, 02, 03, 04, 05, 08, 09, 10, 11, 12, 13, 14 and 15), at a concentration of 0 to 50 μM, and then cultured for 24 hours. Each of three types of gastric cancer cell lines, brain cancer cell lines and pancreatic cancer cell lines was treated with the compound of Production Example 6 or the compound of Production Example 8 having a similar structure at a concentration of 0 to 50 μM, and then cultured for 24 hours. Thereafter, the cultured cells were treated with WST-1 reagent according to the manufacturer's instruction, and after a certain time, the absorbance at a wavelength of 450 nm was measured. Here, the WST-1 reagent allows the cell viability to be measured by changing the color of the culture medium depending on the level of the mitochondrial dehydrogenase present in the cell.
On the technique in general: Tetrazolium dyes change colour on reduction, which living cells bring about.

A further test deals with BT549 cell line. Description: Cell viability assay (WST-1). Type of test: cell-based. To be noted: Homo sapiens, BT-549; BT549, 10 μM, 24 hours; FIG. 3A; read-out: cancer cell viability inhibited. The protocol:
as §2, §3

For a further test, the system named is MDA-MB-231 cell line. Description: Cell viability assay (WST-1). Type of test: cell-based. The following applies: Homo sapiens; MDA-MB-231, 10 μM, 24 hours; FIG. 3A; read-out: cancer cell viability inhibited. The procedure: as §2, §3
Test [4] deals with p-AMPK (Thr172). Nature of the test: AMPK activation by p-AMPK (Thr172) Western blot in 4T1 cells. Type of test: cell-based, mouse. The following applies: 4T1, 10 μM, 24 hours; FIG. 3B. The protocol: (§4) [3-1] The breast cancer cell line of Experimental Method 1 above was treated with the compound of Production Example 6 at a concentration of 0 to 30 μM, and then cultured for 24 hours. Thereafter, the cells were harvested and lysed in RIPA buffer, and the protein was electrophoresed by SDS-PAGE, and then the expression level of the protein was analyzed using antibodies specific for AMPK and phospho-AMPK (Thr172). GAPDH or β-actin was used as a loading control for protein quantification.
as §1

For test [5], the system named is p-AMPK (Thr172). Nature of the test: AMPK activation by p-AMPK (Thr172) Western blot in BT549 cells. To be noted: BT549, 10 μM, 24 hours; FIG. 3B. Type of test: cell-based, human. The protocol: as §4
as §1, with “In addition, each of two types of gastric cancer cell lines, brain cancer cell lines and pancreatic cancer cell lines was treated with the compound of Production Example 6 or the compound of Production Example 8 having a similar structure at a concentration of 10 μM and then cultured for 12 hours.” left out

The test system of test [6] is p-AMPK (Thr172). Nature of the test: AMPK activation by p-AMPK (Thr172) Western blot in MDA-MB-231 cells. The following applies: MDA-MB-231, 10 μM, 24 hours; FIG. 3B. Type of test: cell-based, human. The protocol:
as §4, §1

`NC(=O)c1ncn([C@@H]2O[C@H](COP(=O)(O)O)[C@@H](O)[C@H]2O)c1N` [AICAR, 5-aminoimidazole-4-carboxamide ribonucleotide, reference compound]: the “expression of p-AMPK” value with p-AMPK (Thr172) [1], in the test with p-AMPK (Thr172) [2] and in the test on p-AMPK (Thr172) [3] was “insignificant effect” in each case.

In the case of `COc1ccc(OC)c(/C=C/C(=O)c2cccc(NS(=O)(=O)c3ccc(Cl)cc3)c2)c1` [Production Example 8, (E)-4-chloro-N-(3-(3-(2,5-dimethoxyphenyl)acryloyl)phenyl)benzenesulfonamide], the cytotoxicity at 10 µM in the test on 4T1 cell line, in the test on BT549 cell line and in the test with MDA-MB-231 cell line was no less than 50% in each case. Further, the p-AMPK level result in the test with p-AMPK (Thr172) [4], in the test with p-AMPK (Thr172) [5] and in the test on p-AMPK (Thr172) [6] was “effectively increased” each time. Besides, the “expression of p-AMPK” value in the test with p-AMPK (Thr172) [1], in the test on p-AMPK (Thr172) [2] and in the test on p-AMPK (Thr172) [3] was “increased” each time.

These data come from US12447137B2, “Composition for prevention, amelioration, or treatment of cancer” (EWHA UNIVERSITY—INDUSTRY COLLABORATION FOUNDATION, priority 2019, dated 2025).
